Read-outs that look alike come from different tables or passages of the source.
Experiments:
DNA-PK = target: T1, DNA-PK (Homo sapiens, UniProt P78527); assay: DNA-PK Assay for Biochemical Enzymatic Inhibition (ADP Glo Kinase assay)
T1 construct: purchased Invitrogen PR9107A
Summary of the method: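 Human DNA-PK (25 ng) preincubated 15 min with compounds (ten three-fold dilutions) in HEPES pH 7.5, MgCl2, KCl, calf thymus DNA buffer, then substrate 434.4 μM and ATP 64.4 μM (final) for 60 min at room temperature. ADP-Glo luminescence; percent inhibition fitted by four-parameter regression for IC50.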

[1] = Microsomal stability assay, human liver microsomes; format: in vitro ADME; conditions: for microsomal CLint at 0.1 uM: both sexes, human, liver microsomes
Protocol: Samples were then mixed and centrifuged. Supernatants were used for HPLC-MS/MS analysis. […] Peak areas corresponding to the test compound were recorded.

[2] = target: T2, DNA-PK phosphorylation at Serine 2056 (Homo sapiens, UniProt P78527); assay: Cellular Assay for Inhibition of DNA-PK Phosphorylation at Serine 2056 (FaDu cells, neocarzinostatin, sandwich ELISA); format: cell-based
T2 construct: host or cells: FaDu
Summary of the method: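 FaDu cells were pretreated with compound (0.3% DMSO) for 1 h, then exposed to neocarzinostatin at 1 μg/mL final for 2 h to induce DSBs. Protein-normalized lysates were assayed by MSD sandwich ELISA for total and pSer2056 DNA-PK. IC50 came from variable-slope fits of % inhibition relative to DMSO and NCS controls.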

[3] = Microsomal stability assay, mouse liver microsomes; conditions: for microsomal CLint at 0.1 uM: male, CD-1, mouse, liver microsomes, pH 7.4, Microsomal Stability Mouse Clint
[4] = target: T3, pDNA-PK ser2056 induction in HCT116 spheroids (Homo sapiens, UniProt P78527); assay: Multicellular tumour spheroid + radiation, pDNA-PK inhibition, HCT116; format: cell-based; conditions: 20 Gy, 20% O2
T3 construct: endogenous in cells; host or cells: HCT116 multicellular tumour spheroids
Summary of the method: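 HCT116 spheroids (~0.5 mm) in MEM/10% FBS/10 mM glucose, 20% O2, 37 °C, pre-incubated 1 h with compound (10 or 5 μM down to 3.5 nM), irradiated 20 Gy, incubated 2 h more. Cryosections immunostained for pDNA-PK ser2056; EC50 (μM) for 50% reduction of radiation-induced pDNA-PK.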

[5] = Hepatocyte stability assay, mouse hepatocytes; format: in vitro ADME; conditions: for hepatocyte CLint at 1 uM: male, CD-1, mouse, cryopreserved hepatocytes
Protocol: (§1) Cryopreserved mouse hepatocytes were obtained from a pool of 10 or more male CD-1 mice. Cryopreserved human hepatocytes were obtained from a pool of 10 or more donors of mixed gender. Final hepatocyte density was 0.7 million viable cells per mL and test compound concentration was 1 uM with a maximum of 0.01% DMSO. Cryopreserved hepatocytes were thawed, washed, and resuspended in Krebs-Heinslet buffer (pH 7.3). The reaction was initiated by adding the test compound into cell suspension and incubated for 0, […], 1, 1.5, and 2 h, respectively, at 37° C./5% CO2. The reaction was stopped by adding acetonitrile into the incubation mixture. Samples were then mixed, transferred completely to another 96-well plate, and centrifuged. Supernatants were used for HPLC-MS/MS analysis. […] Peak areas corresponding to the test compound were recorded.

[6] = Hepatocyte stability assay, human hepatocytes; format: in vitro ADME; conditions: both sexes, human, cryopreserved hepatocytes, pH 7.3; Example 11
Protocol: as §1

[7] = pH 7.4, 0.1 mg/mL microsomes, 0.1 uM compound
[8] = 0.1 mg/mL microsomes, 0.1 uM compound
[9] = Example 7, spheroid, cell line HCT115 [sic], read-out: EC50 (pDNA-PK inhibition, immunohistochemical endpoint)
[10] = Example 9 Study 2, read-out: Spheroid Cell line: HCT116 Immunohistochemical endpoint pDNA-PK inhibition EC50

Structure (SMILES) | IC50 (DNA-PK; Table 1) | Microsomal Stability (human) % rem. 60 min [1] | microsomal CLint at 0.1 uM [1, 7] | IC50 ([2]; Table 1) | Microsomal Stability (mouse) % rem. 60 min [3] | microsomal CLint at 0.1 uM [3, 8] | EC50 [4, 9] | EC50 [4, 10] | Hepatocyte Stability (mouse) % rem. 120 min ([5]; 120 min) | hepatocyte CLint at 1 uM ([5]; pH 7.3, 0.7 million cells per mL, 1 uM compound) | IC50 (DNA-PK; Table 2) | hepatocyte CLint at 1 uM ([5]; pH 7.3, Example 11) | Microsomal Stability (human) % rem. 60 min ([1]; Example 11) | microsomal CLint at 0.1 uM ([1]; pH 7.4, Example 11) | IC50 ([2]; Table 2) | Microsomal Stability (mouse) % rem. 60 min ([3]; Example 11) | microsomal CLint at 0.1 uM ([3]; Example 11) | hepatocyte CLint at 1 uM [6]
O=C(N[C@H]1CC[C@@H](Oc2nc(N3CCOCC3)cc3ncccc23)CC1)c1cccnn1 [Compound 120, N-((1s,4s)-4-((7-morpholino-1,6-naphthyridin-5-yl)oxy)cyclohexyl)pyridazine-3-carboxamide] | 0.0005 to 0.001 µM | F (% remaining = 25-50%) | > 116 µL/min/mg | 0.1 to 1 µM | H (% remaining = 75-100%) | < 116 µL/min/mg | 1 to 10 µM | 1 to 10 µM |  |  |  |  |  |  |  |  |  | 
COc1ccnc(C(=O)N[C@H]2CC[C@@H](Oc3nc(N4CCOCC4)cc4ncccc34)CC2)n1 [Compound 131, 4-methoxy-N-((1s,4s)-4-((7-morpholino-1,6-naphthyridin-5-yl)oxy)cyclohexyl)pyrimidine-2-carboxamide] | 0.0005 to 0.001 µM | E (% remaining = 0-25%) | > 116 µL/min/mg | < 0.1 µM | E (% remaining = 0-25%) | > 116 µL/min/mg | 1 to 10 µM | 1 to 10 µM |  |  |  |  |  |  |  |  |  | 
O=C(N[C@H]1CC[C@@H](Oc2nc(N3CCOCC3)cc3ncccc23)CC1)c1cncs1 [Compound 137, N-((1s,4s)-4-((7-morpholino-1,6-naphthyridin-5-yl)oxy)cyclohexyl)thiazole-5-carboxamide] | < 0.0005 µM | F (% remaining = 25-50%) | > 116 µL/min/mg | 0.1 to 1 µM | G (% remaining = 50-75%) | < 116 µL/min/mg | 0.5 to 1 µM | 0.5 to 1 µM |  |  |  |  |  |  |  |  |  | 
CS(=O)(=O)Nc1cnc2cc(N3CCOCC3)nc(O[C@H]3CC[C@@H](NC(=O)c4ncccn4)CC3)c2c1 [Compound 177, N-((1s,4s)-4-((3-(methylsulfonamido)-7-morpholino-1,6-naphthyridin-5-yl)oxy)cyclohexyl)pyrimidine-2-carboxamide] | 0.0005 to 0.001 µM | G (% remaining = 50-75%) | < 116 µL/min/mg | 1 to 10 µM | G (% remaining = 50-75%) | < 116 µL/min/mg | 1 to 10 µM | 1 to 10 µM |  |  |  |  |  |  |  |  |  | 
CN(c1cnc2cc(N3CCOCC3)nc(O[C@H]3CC[C@@H](Nc4ncccn4)CC3)c2c1)S(C)(=O)=O [Compound 197, N-methyl-N-(7-morpholino-5-(((1s,4s)-4-(pyrimidin-2-ylamino)cyclohexyl)oxy)-1,6-naphthyridin-3-yl)methanesulfonamide] | 0.001 to 0.01 µM |  |  | 0.1 to 1 µM |  |  |  |  | G (% remaining = 50-75%) | > 8.2 µL/min/1e6 cells |  |  |  |  |  |  |  | 
CS(=O)(=O)Nc1cnc2cc(N3CCOCC3)nc(O[C@H]3CC[C@@H](Nc4ncccn4)CC3)c2c1 [LFA006, N-[7-Morpholino-5-[4-(pyrimidin-2-ylamino)cyclohexoxy]-1,6-naphthyridin-3-yl]methanesulfonamide] |  |  |  |  |  |  |  |  |  |  | < 0.0005 µM | > 8.2 µL/min/1e6 cells | G (% remaining = 50-75%) | < 116 µL/min/mg | < 0.1 µM | G (% remaining = 50-75%) | < 116 µL/min/mg | 
CS(=O)(=O)Nc1cnc2cc(N3CCOCC3)nc(O[C@H]3CC[C@@H](NC(=O)c4ncccn4)CC3)c2c1 [LFA015, N-[4-[[3-(Methanesulfonamido)-7-morpholino-1,6-naphthyridin-5-yl]oxy]cyclohexyl]pyrimidine-2-carboxamide] |  |  |  |  |  |  |  |  |  |  | < 0.0005 µM |  | H (% remaining = 75-100%) | < 116 µL/min/mg | 1 to 10 µM | H (% remaining = 75-100%) | < 116 µL/min/mg | 
CS(=O)(=O)Nc1cnc2cc(N3CCOCC3)nc(O[C@H]3CC[C@@H](n4ccnc4)CC3)c2c1 [LFA017, N-[5-(4-Imidazol-1-ylcyclohexoxy)-7-morpholino-1,6-naphthyridin-3-yl]methanesulfonamide] |  |  |  |  |  |  |  |  |  |  | < 0.0005 µM | > 8.2 µL/min/1e6 cells |  |  |  |  |  | < 8.2 µL/min/1e6 cells
CS(=O)(=O)Nc1cnc2cc(N3CCOCC3)nc(O[C@H]3CC[C@@H](Nc4ncc(C(F)(F)F)cn4)CC3)c2c1 [LFA022, N-[7-Morpholino-5-[4-[[5-(trifluoromethyl)pyrimidin-2-yl]amino]cyclohexoxy]-1,6-naphthyridin-3-yl]methanesulfonamide] |  |  |  |  |  |  |  |  |  |  | 0.0005 to 0.001 µM | > 8.2 µL/min/1e6 cells | H (% remaining = 75-100%) | < 116 µL/min/mg | < 0.1 µM | G (% remaining = 50-75%) | < 116 µL/min/mg | 
CS(=O)(=O)Nc1cnc2cc(N3CCOCC3)nc(O[C@H]3CC[C@@H](Nc4ncc(C#N)cn4)CC3)c2c1 [LFA025, N-[5-[4-[(5-Cyanopyrimidin-2-yl)amino]cyclohexoxy]-7-morpholino-1,6-naphthyridin-3-yl]methanesulfonamide] |  |  |  |  |  |  |  |  |  |  | < 0.0005 µM | > 8.2 µL/min/1e6 cells | H (% remaining = 75-100%) | < 116 µL/min/mg | < 0.1 µM | G (% remaining = 50-75%) | < 116 µL/min/mg | < 8.2 µL/min/1e6 cells
O=C(N[C@H]1CC[C@@H](Oc2nc(N3CCOCC3)cc3ncc(O)cc23)CC1)c1ncccn1 [LFA115, N-[4-[(3-Hydroxy-7-morpholino-1,6-naphthyridin-5-yl)oxy]cyclohexyl]pyrimidine-2-carboxamide] |  |  |  |  |  |  |  |  |  |  | 0.0005 to 0.001 µM |  | G (% remaining = 50-75%) | < 116 µL/min/mg | 0.1 to 1 µM | G (% remaining = 50-75%) | < 116 µL/min/mg | 
Oc1cnc2cc(N3CCOCC3)nc(O[C@H]3CC[C@@H](Nc4ncccn4)CC3)c2c1 [LFA117, 7-Morpholino-5-[4-(pyrimidin-2-ylamino)cyclohexoxy]-1,6-naphthyridin-3-ol] |  |  |  |  |  |  |  |  |  |  | < 0.0005 µM |  | H (% remaining = 75-100%) | < 116 µL/min/mg | < 0.1 µM | F (% remaining = 25-50%) | < 116 µL/min/mg | 
